Measurements as given in EP1799816B1, “NOVEL LACCASE ENZYME AND USE THEREOF” (AB Enzymes Oy, priority 2004, dated 2006).
Like-named read-outs stand apart in the source and are kept apart here.

Columns and labels:
[1] = biological target: T1, recombinant Thielavia arenaria TaLcc1 laccase (rTaLcc1) expressed in Trichoderma reesei, SEQ ID NO: 12 (Canariomyces arenarius, UniProt F6N9E7); format: biochemical
T1 sequence (F6N9E7 22-604): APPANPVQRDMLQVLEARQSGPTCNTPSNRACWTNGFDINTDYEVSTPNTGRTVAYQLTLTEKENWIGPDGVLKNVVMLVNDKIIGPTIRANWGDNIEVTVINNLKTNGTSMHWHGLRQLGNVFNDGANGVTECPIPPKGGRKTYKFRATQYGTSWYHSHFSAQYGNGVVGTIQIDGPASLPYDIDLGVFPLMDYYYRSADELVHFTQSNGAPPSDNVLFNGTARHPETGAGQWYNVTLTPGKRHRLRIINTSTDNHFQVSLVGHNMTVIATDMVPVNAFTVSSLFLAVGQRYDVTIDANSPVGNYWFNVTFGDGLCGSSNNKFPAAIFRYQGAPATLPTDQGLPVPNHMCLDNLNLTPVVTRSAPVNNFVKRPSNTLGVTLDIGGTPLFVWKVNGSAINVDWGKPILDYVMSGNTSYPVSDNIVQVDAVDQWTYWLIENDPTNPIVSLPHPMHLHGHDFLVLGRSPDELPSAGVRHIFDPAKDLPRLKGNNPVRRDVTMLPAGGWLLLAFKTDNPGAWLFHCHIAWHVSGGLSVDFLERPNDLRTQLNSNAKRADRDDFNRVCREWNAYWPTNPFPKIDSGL
Experimental: (§1) On syringaldazin and DMP 40 mM MES buffer, pH 6 and 25 mM succinate bluffer, All activity assays were carried out at 25°C. Kinetic parameters were estimated by a nonlinear regression curve fit. The values were compared to those of Melanocarpus albomyces MaL, laccase.

[2] = biological target: T2, Melanocarpus albomyces laccase MaL (Melanocarpus albomyces, UniProt Q70KY3); test: Kinetic parameters (Km, kcat, kcat/Km) on laccase substrates; format: biochemical; settings: substrate ABTS; 25 mM succinate buffer, pH 4.5, 25°C; comparison enzyme
T2 sequence (Q70KY3 51-609): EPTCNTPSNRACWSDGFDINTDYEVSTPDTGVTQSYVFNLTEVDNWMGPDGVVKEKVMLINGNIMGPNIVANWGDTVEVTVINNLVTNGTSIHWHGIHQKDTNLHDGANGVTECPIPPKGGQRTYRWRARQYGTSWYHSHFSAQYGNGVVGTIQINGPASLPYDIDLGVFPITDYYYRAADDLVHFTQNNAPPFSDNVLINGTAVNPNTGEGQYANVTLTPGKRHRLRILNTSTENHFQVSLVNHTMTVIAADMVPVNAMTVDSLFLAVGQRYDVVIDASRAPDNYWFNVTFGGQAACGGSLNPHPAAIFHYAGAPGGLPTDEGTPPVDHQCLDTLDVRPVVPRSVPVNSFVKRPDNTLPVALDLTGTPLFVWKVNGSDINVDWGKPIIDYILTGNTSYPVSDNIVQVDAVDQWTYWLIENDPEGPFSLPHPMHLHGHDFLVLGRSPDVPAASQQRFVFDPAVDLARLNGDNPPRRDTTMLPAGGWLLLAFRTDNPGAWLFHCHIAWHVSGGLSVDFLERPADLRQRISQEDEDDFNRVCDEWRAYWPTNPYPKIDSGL
Experimental: as §1

| Compound | kcat ([1]; substrate Syringaldazin, 25°C, buffer unclear (40 mM MES buffer, pH 6 / 25 mM succinate buffer)) [s⁻¹] | Km [2] [µM] | kcat [2] [s⁻¹] | kcat ([1]; substrate ABTS, 25 mM succinate buffer, pH 4.5, 25°C) [s⁻¹] |
| --- | --- | --- | --- | --- |
| COc1cc(C=NN=Cc2cc(OC)c(O)c(OC)c2)cc(OC)c1O [Syringaldazin, syringaldazine] | 32.33 | – | – | – |
| CCn1c(=NN=c2sc3cc(S(=O)(=O)O)ccc3n2CC)sc2cc(S(=O)(=O)O)ccc21 [ABTS, 2,2'azinobis-3-ethylbenzthiazole-6-sulphonate] | – | 270 | 78.17 | 68.83 |
